Values of other authors, collected in US6124282A (priority 1998, dated 2000).

What was measured:
[1] = test system: extensive metabolisers (EMs) and poor metabolisers (PMs); conditions: PMs and EMs pretreated with quinidine; cited from earlier work
[2] = test system: extensive metabolizers (EMs); conditions: inhibiting CYP2D6 (EMs converted into PMs); cited from earlier work
[3] = oral; urine; cited from earlier work

COc1ccc2c3c1O[C@H]1[C@@H](O)C=C[C@H]4[C@@H](C2)N(C)CC[C@@]341 [codeine]
codeine analgesia [1]: impaired in PMs as well as in EMs
codeine consumption [2]: significantly decreases codeine consumption
excreted unchanged [3]: About 4%
